{
  "source": "patent US20100086931A1",
  "about": "“METHOD FOR ASSAYING ACTION OF ANTITUMOR AGENT USING DECREASE IN GENE EXPRESSION LEVEL AS INDEX” (Eisai R&D Management Co., Ltd., priority 2007, published 2010)",
  "test_system": "peripheral blood mononuclear cells (PBMC)",
  "assay": "Microarray analysis (Human Exon 1.0 ST Array) of gene expression in PBMC",
  "assay_type": "cell-based",
  "settings": "vs untreated group",
  "text": "Since it is not easy to obtain a cancer tissue clinically, the measurement of the marker in hemocytes readily obtainable in peripheral blood would be more useful. It was then examined whether the marker gene obtained in cancer cells could change in peripheral mononuclear cells in a similar manner as observed in the cancer cells. Specifically peripheral blood was taken from three normal individuals (volunteers) and peripheral mononuclear cells were purified and treated with (8E,12E,14E)-7-((4-Cycloheptylpiperazin-1-yl)carbonyl)oxy-3,6,16,21-tetrahydroxy-6,10,12,16,20-pentamethyl-18,19-epoxytricosa-8,12,14-trien-11-olide for six hours, followed by measurement of change in expression of the gene by a microarray (Human Exon 1.0 ST Array: Affymetrix).\nFicoll-Paque PLUS solution (Amersham, 17-1440-02) was slowly added to the blood taken (with heparin added) from healthy individuals to form a layer underneath the blood (15 ml of Ficoll-Paque PLUS solution was added to 25 ml of blood). After the mixture was centrifuged at 1500 rpm for 30 min, the upper part containing platelets was removed and then a layer containing mononuclear cells was transferred to another tube. The cells were suspended in PBS and centrifuged at 1500 rpm for 5 min, followed by removal of the supernatant. After these steps were repeated twice, the cells were again suspended in RPMI1640 (containing 10% FBS, penicillin, and streptomycin) and the number of the cells was then counted.\nPBMC was suspended in RPMI1640 medium (containing 10% FBS, penicillin, and streptomycin) to 5×10^6 cells/ml and 1 ml of the suspension was plated per well of a 24-well plate. Immediately, 111 μl of 10 times-concentrated (8E,12E,14E)-7-((4-Cycloheptylpiperazin-1-yl)carbonyl)oxy-3,6,16,21-tetrahydroxy-6,10,12,16,20-pentamethyl-18,19-epoxytricosa-8,12,14-trien-11-olide was added to the well (six wells per each concentration tested). The cells were then cultured in an incubator with 5% carbon dioxide gas at 37° C. Three hours later, the supernatant was collected and centrifuged at 1500 rpm for five minutes. TRI reagent (SIGMA) (1 ml) was added to each well of the plate from which the supernatant was removed to harvest the cells, which was added to the centrifuged pellet to dissolve. RNA was purified in accordance with the protocol of TRI reagent. RNA was further purified using RNeasy (QIAGEN) and, in accordance with the protocol, DNase I was added to the samples during the procedure. Absorbance at 260 nm was measured to quantify an amount of RNA.\nRibosomal RNA was removed from 1 μg of each RNA by using RiboMinus Human/Mouse Transcriptome Isolation Kit (Invitrogen). Single stranded cDNA synthesis, double stranded cDNA synthesis, cRNA synthesis, second single stranded cDNA synthesis, cDNA fragmentation, and cDNA labeling in order were carried out for total RNA from which ribosomal RNA was removed, using GeneChip Whole Transcript Sense Target Labeling and Control Reagents (Affymetrix) to make a cDNA probe. Subsequently, the cDNA probe was used for hybridization with Human Exon 1.0 ST Array (Affymetrix). The array was washed and stained, and luminescence intensity was measured by a scanner.\nThe expression level of the gene was quantified by using Expression Console Ver. 1.0 (Affymetrix) with Summarization Method and Normalization Method being set to “Median polish as used in RMA” and “None”, respectively.\nGenes showing the change in the expression of the gene in both groups with the 10 nM treatment and the 30 nM treatment is, compared to that in the […], less than 25%; the expression level of the gene in the untreated group is more than 100; both P values of t-test for the 10 nM treated group and the untreated group, and for the 30 nM treated group and the untreated group are less than 5% were picked out. (Table 4). […]",
  "data": [
    {"smiles": "CCC(O)C(C)C1OC1CC(C)(O)/C=C/C=C(\\C)C1OC(=O)CC(O)CCC(C)(O)C(OC(=O)N2CCN(C3CCCCCC3)CC2)/C=C/C1C", "note": "(centres unmarked) [E7107, (8E,12E,14E)-7-((4-Cycloheptylpiperazin-1-yl)carbonyl)oxy-3,6,16,21-tetrahydroxy-6,10,12,16,20-pentamethyl-18,19-epoxytricosa-8,12,14-trien-11-olide]", "values": [
      {"measurement": "Fold Change in expression level of ARFGAP3 (Transcript Cluster 3962587)", "setting": "10 nM", "value": 0.21},
      {"measurement": "Fold Change in expression level of C13orf31 (Transcript Cluster 3487600)", "setting": "10 nM", "value": 0.21},
      {"measurement": "Fold Change in expression level of CD274 (Transcript Cluster 3161082)", "setting": "10 nM", "value": 0.19},
      {"measurement": "Fold Change in expression level of CTSL1 (Transcript Cluster 3178147)", "setting": "10 nM", "value": 0.09},
      {"measurement": "Fold Change in expression level of DOCK4 (Transcript Cluster 3068097)", "setting": "10 nM", "value": 0.16},
      {"measurement": "Fold Change in expression level of ENG (Transcript Cluster 3226097)", "setting": "10 nM", "value": 0.24},
      {"measurement": "Fold Change in expression level of GK (Transcript Cluster 3972929)", "setting": "10 nM", "value": 0.19},
      {"measurement": "Fold Change in expression level of KMO (Transcript Cluster 2388085)", "setting": "10 nM", "value": 0.13},
      {"measurement": "Fold Change in expression level of KYNU (Transcript Cluster 2508520)", "setting": "10 nM", "value": 0.10},
      {"measurement": "Fold Change in expression level of LAIR1 (Transcript Cluster 3870824)", "setting": "10 nM", "value": 0.21},
      {"measurement": "Fold Change in expression level of NRIP3 (Transcript Cluster 3362159)", "setting": "10 nM", "value": 0.15},
      {"measurement": "Fold Change in expression level of OLR1 (Transcript Cluster 3444043)", "setting": "10 nM", "value": 0.09},
      {"measurement": "Fold Change in expression level of P2RX4 (Transcript Cluster 3434760)", "setting": "10 nM", "value": 0.22},
      {"measurement": "Fold Change in expression level of PIK3R5 (Transcript Cluster 3744680)", "setting": "10 nM", "value": 0.23},
      {"measurement": "Fold Change in expression level of PLA2G7 (Transcript Cluster 2955827)", "setting": "10 nM", "value": 0.12},
      {"measurement": "Fold Change in expression level of RCN1 (Transcript Cluster 3325503)", "setting": "10 nM", "value": 0.09},
      {"measurement": "Fold Change in expression level of SEMA6B (Transcript Cluster 3846860)", "setting": "10 nM", "value": 0.23},
      {"measurement": "Fold Change in expression level of SLAMF7 (Transcript Cluster 2363202)", "setting": "10 nM", "value": 0.15},
      {"measurement": "Fold Change in expression level of SLC7A11 (Transcript Cluster 2786322)", "setting": "10 nM", "value": 0.13},
      {"measurement": "Fold Change in expression level of SLC37A2 (Transcript Cluster 3354443)", "setting": "10 nM", "value": 0.21},
      {"measurement": "Fold Change in expression level of SLC41A2 (Transcript Cluster 3469180)", "setting": "10 nM", "value": 0.21},
      {"measurement": "Fold Change in expression level of SLC43A2 (Transcript Cluster 3740367)", "setting": "10 nM", "value": 0.22},
      {"measurement": "Fold Change in expression level of SLC43A3 (Transcript Cluster 3373845)", "setting": "10 nM", "value": 0.17},
      {"measurement": "Fold Change in expression level of STEAP4 (Transcript Cluster 3060332)", "setting": "10 nM", "value": 0.20},
      {"measurement": "Fold Change in expression level of TNFAIP6 (Transcript Cluster 2510464)", "setting": "10 nM", "value": 0.18},
      {"measurement": "Fold Change in expression level of TNFSF15 (Transcript Cluster 3222128)", "setting": "10 nM", "value": 0.10},
      {"measurement": "Fold Change in expression level of TRAF1 (Transcript Cluster 3223738)", "setting": "10 nM", "value": 0.19},
      {"measurement": "Fold Change in expression level of TRAPPC4 (Transcript Cluster 3351775)", "setting": "10 nM", "value": 0.23},
      {"measurement": "Fold Change in expression level of ARFGAP3 (Transcript Cluster 3962587)", "setting": "30 nM", "value": 0.14},
      {"measurement": "Fold Change in expression level of C13orf31 (Transcript Cluster 3487600)", "setting": "30 nM", "value": 0.19},
      {"measurement": "Fold Change in expression level of CD274 (Transcript Cluster 3161082)", "setting": "30 nM", "value": 0.18},
      {"measurement": "Fold Change in expression level of CTSL1 (Transcript Cluster 3178147)", "setting": "30 nM", "value": 0.09},
      {"measurement": "Fold Change in expression level of DOCK4 (Transcript Cluster 3068097)", "setting": "30 nM", "value": 0.14},
      {"measurement": "Fold Change in expression level of ENG (Transcript Cluster 3226097)", "setting": "30 nM", "value": 0.20},
      {"measurement": "Fold Change in expression level of GK (Transcript Cluster 3972929)", "setting": "30 nM", "value": 0.21},
      {"measurement": "Fold Change in expression level of KMO (Transcript Cluster 2388085)", "setting": "30 nM", "value": 0.13},
      {"measurement": "Fold Change in expression level of KYNU (Transcript Cluster 2508520)", "setting": "30 nM", "value": 0.10},
      {"measurement": "Fold Change in expression level of LAIR1 (Transcript Cluster 3870824)", "setting": "30 nM", "value": 0.14},
      {"measurement": "Fold Change in expression level of NRIP3 (Transcript Cluster 3362159)", "setting": "30 nM", "value": 0.13},
      {"measurement": "Fold Change in expression level of OLR1 (Transcript Cluster 3444043)", "setting": "30 nM", "value": 0.04},
      {"measurement": "Fold Change in expression level of P2RX4 (Transcript Cluster 3434760)", "setting": "30 nM", "value": 0.22},
      {"measurement": "Fold Change in expression level of PIK3R5 (Transcript Cluster 3744680)", "setting": "30 nM", "value": 0.21},
      {"measurement": "Fold Change in expression level of PLA2G7 (Transcript Cluster 2955827)", "setting": "30 nM", "value": 0.15},
      {"measurement": "Fold Change in expression level of RCN1 (Transcript Cluster 3325503)", "setting": "30 nM", "value": 0.17},
      {"measurement": "Fold Change in expression level of SEMA6B (Transcript Cluster 3846860)", "setting": "30 nM", "value": 0.22},
      {"measurement": "Fold Change in expression level of SLAMF7 (Transcript Cluster 2363202)", "setting": "30 nM", "value": 0.14},
      {"measurement": "Fold Change in expression level of SLC7A11 (Transcript Cluster 2786322)", "setting": "30 nM", "value": 0.06},
      {"measurement": "Fold Change in expression level of SLC37A2 (Transcript Cluster 3354443)", "setting": "30 nM", "value": 0.23},
      {"measurement": "Fold Change in expression level of SLC41A2 (Transcript Cluster 3469180)", "setting": "30 nM", "value": 0.17},
      {"measurement": "Fold Change in expression level of SLC43A2 (Transcript Cluster 3740367)", "setting": "30 nM", "value": 0.18},
      {"measurement": "Fold Change in expression level of SLC43A3 (Transcript Cluster 3373845)", "setting": "30 nM", "value": 0.14},
      {"measurement": "Fold Change in expression level of STEAP4 (Transcript Cluster 3060332)", "setting": "30 nM", "value": 0.22},
      {"measurement": "Fold Change in expression level of TNFAIP6 (Transcript Cluster 2510464)", "setting": "30 nM", "value": 0.19},
      {"measurement": "Fold Change in expression level of TNFSF15 (Transcript Cluster 3222128)", "setting": "30 nM", "value": 0.07},
      {"measurement": "Fold Change in expression level of TRAF1 (Transcript Cluster 3223738)", "setting": "30 nM", "value": 0.17},
      {"measurement": "Fold Change in expression level of TRAPPC4 (Transcript Cluster 3351775)", "setting": "30 nM", "value": 0.21}
    ]}
  ]
}
